According to patent EP4706404A1, “MICROENCAPSULATED NATURAL PRESERVATIVE AND ANTIOXIDANT FOR FATTY FOODS, WITH WALNUT HUSK AND WALNUT TREE LEAF EXTRACT” (Universidad Andres Bello, priority 2023, dated 2024):
Like-named read-outs stand apart in the source and are kept apart here.

Legend:
[1] = test system: Caco-2 cells
[2] = test system: HEPG-2
Procedure: The test consisted of evaluating the cytotoxic effect of walnut husk and leaf extract, in different concentrations, on viability in cell culture. For this, the HEPG-2 line was used as a cell matrix, which are immortalized human liver cells.
To evaluate the effect on viability in cell culture, an assay was performed with the Invitrogen MTT kit (Ref.V13154; lot:1924421), whose technique consists of a colorimetric analysis that measures the metabolic activity of the cell. This assay was carried out following the protocol provided by the kit supplier, using a 96-well plate with HEPG-2 cell culture with an approximate confluence of 80%. Taking the cytotoxic compound SDS 0.2% as a positive control and the cell culture with its medium as a negative control.

[3] = test system: Salmonella; settings: mayonnaise
From the text: (§1) Mayonnaise was made on a laboratory scale using mayonnaise powder, the flowchart is shown in Diagram 3. [formula]
(§2) Where the stability of mayonnaise without any antioxidant (control) was studied, the stability when using a frequently used synthetic antioxidant such as EDTA, and a microparticle of the invention for foods with more than 70% fat, which corresponds to Maltodextrin with capsule as a channeling agent (EH:MD-Capsule). The dose used was in accordance with the food safety regulations (FSR) and corresponded to 5.5 g of microparticles per 2 kilos of mayonnaise. […] Table 9. Mayonnaise formulation for stability tests.

[4] = test system: mesophilic aerobic microorganisms (AMR); settings: mayonnaise
From the text: as §1, §2

[5] = test system: S. aureus; settings: mayonnaise

CCCCCCCCCCCCOS(=O)(=O)[O-].[Na+] [SDS]
Cell viability [1]: 3.94± 0.2%
Cell viability [2]: 22.9%

O=C(O)CN(CCN(CC(=O)O)CC(=O)O)CC(=O)O [synthetic, EDTA]
Salmonella Title ([3]; 4°C, 6 days refrigeration): 0 CFU/gr
Salmonella Title ([3]; 4°C, 13 days refrigeration): 0 CFU/gr
Salmonella Title ([3]; 4°C, 20 days refrigeration): 0 CFU/gr
Salmonella Title ([3]; 4°C, 27 days refrigeration): 0 CFU/gr
Salmonella Title ([3]; Time 0): 0 CFU/gr
day of conservation from which AMR were detected ([4]; 4°C): 20 days
AMR Title ([4]; 4°C, 6 days refrigeration): 0 CFU/gr
AMR Title ([4]; 4°C, 13 days refrigeration): 0 CFU/gr
AMR Title ([4]; 4°C, 20 days refrigeration): 2x10^4 CFU/gr
AMR Title ([4]; 4°C, 27 days refrigeration): 1.25 x 10^5 CFU/gr
AMR Title ([4]; Time 0): 0 CFU/gr
day from which S. aureus develops ([5]; 4°C): 20 days
S. aureus Title ([5]; 4°C, 6 days refrigeration): 0 CFU/gr
S. aureus Title ([5]; 4°C, 13 days refrigeration): 0 CFU/gr
S. aureus Title ([5]; 4°C, 27 days refrigeration): 1.15 x 10^4 CFU/gr
S. aureus Title ([5]; Time 0): 0 CFU/gr
